Holding throughout (assay): relative viability (nuclei count vs DMSO), 5 days (fraction); higher = more cells survive
Compound in one assay: CN(NC(=O)CC(=O)NN(C)C(=S)c1ccccc1)C(=S)c1ccccc1 [Elesclomol]
The method in brief: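 Viability was read as treated-well nuclei divided by vehicle-well nuclei, using the median across plates. Lung cancer cell lines in 1536-well plates were kept overnight at 37 °C, pinned with five √10-spaced library-drug doses, and after 5 days were Hoechst-stained, imaged at 4× and counted in MetaXpress. Plates passed only with control CV below 25% and at least one doubling.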

Compound in the assay “Elesclomol + Lapatinib”: CN(NC(=O)CC(=O)NN(C)C(=S)c1ccccc1)C(=S)c1ccccc1 [Elesclomol] + CS(=O)(=O)CCNCc1ccc(-c2ccc3ncnc(Nc4ccc(OCc5cccc(F)c5)c(Cl)c4)c3c2)o1 [Lapatinib] (partner 2 µM)
Summed up:
(§1)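 Relative viability divides the nuclei count in treated wells by that in vehicle wells. Lung cancer cell lines were seeded in 1536-well plates, dosed by pin tool the next day, and fixed and stained after 5 days in one step with final 0.05% Triton X-100, 1% formaldehyde and 1 ug/ml Hoechst. Dosing was a single drug or a fixed anchor-drug dose plus five library-drug doses (not always all listed) in √10 steps, and values are medians of duplicate plates imaged at 4×.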

Compound in the assay “Elesclomol + AZD7762”: CN(NC(=O)CC(=O)NN(C)C(=S)c1ccccc1)C(=S)c1ccccc1 [Elesclomol] + NC(=O)Nc1cc(-c2cccc(F)c2)sc1C(=O)N[C@H]1CCCNC1 [AZD7762] (partner 0.2 µM)
The method in brief:
as §1

Compound in the assay “Elesclomol + Vorinostat”: CN(NC(=O)CC(=O)NN(C)C(=S)c1ccccc1)C(=S)c1ccccc1 [Elesclomol] + O=C(CCCCCCC(=O)Nc1ccccc1)NO [Vorinostat] (partner 1 µM)
The method in brief: as §1

Compound in the assay “Elesclomol + Trametinib”: CN(NC(=O)CC(=O)NN(C)C(=S)c1ccccc1)C(=S)c1ccccc1 [Elesclomol] + CC(=O)Nc1cccc(-n2c(=O)n(C3CC3)c(=O)c3c(Nc4ccc(I)cc4F)n(C)c(=O)c(C)c32)c1 [Trametinib] (partner 0.02 µM)
Summed up:
as §1

The values below come from the supplement of paper PMC10307832.

Consider NCI-H838, for which the relative viability came out at 0.959 with Elesclomol (0.003162 µM); 0.883 with Elesclomol (0.01 µM); 0.792 with Elesclomol (0.03162 µM); 0.454 with Elesclomol (0.1 µM); 0.984 with Elesclomol + Lapatinib (first compound 0.003162 µM); 0.838 with Elesclomol + Lapatinib (first compound 0.01 µM). The relative viability was 0.683 in the assay with Elesclomol + Lapatinib (first compound 0.03162 µM); 0.555 in the assay with Elesclomol + Lapatinib (first compound 0.1 µM); 0.989 with Elesclomol + AZD7762 (first compound 0.003162 µM); 0.87 in the assay with Elesclomol + AZD7762 (first compound 0.01 µM); 0.735 with Elesclomol + AZD7762 (first compound 0.03162 µM); 0.613 with Elesclomol + AZD7762 (first compound 0.1 µM). The relative viability was 0.723 with Elesclomol + Vorinostat (first compound 0.003162 µM); 0.706 in the assay with Elesclomol + Vorinostat (first compound 0.01 µM); 0.609 in the assay with Elesclomol + Vorinostat (first compound 0.03162 µM); 0.303 in the assay with Elesclomol + Vorinostat (first compound 0.1 µM); 0.56 with Elesclomol + Trametinib (first compound 0.003162 µM); 0.494 in the assay with Elesclomol + Trametinib (first compound 0.01 µM). Moreover, the values for the relative viability in the assay with Elesclomol + Trametinib (first compound 0.03162 µM) and with Elesclomol + Trametinib (first compound 0.1 µM) were 0.518 and 0.216, respectively.
As for NCI-H3122, the relative viability with Elesclomol (0.003162 µM) stood at 0.987; with Elesclomol (0.01 µM) it was 1; in the assay with Elesclomol (0.03162 µM), 0.957; with Elesclomol (0.1 µM), 0.349; in the assay with Elesclomol + Lapatinib (first compound 0.003162 µM), 0.999; with Elesclomol + Lapatinib (first compound 0.01 µM), 0.989. Besides, the relative viability is 0.978 with Elesclomol + Lapatinib (first compound 0.03162 µM); 0.434 with Elesclomol + Lapatinib (first compound 0.1 µM); 0.97 with Elesclomol + AZD7762 (first compound 0.003162 µM); 0.972 with Elesclomol + AZD7762 (first compound 0.01 µM); 0.912 with Elesclomol + AZD7762 (first compound 0.03162 µM); 0.0974 with Elesclomol + AZD7762 (first compound 0.1 µM). Besides, the relative viability in the assay with Elesclomol + Vorinostat (first compound 0.003162 µM) turned out to be 0.652; with Elesclomol + Vorinostat (first compound 0.01 µM), 1.02; with Elesclomol + Vorinostat (first compound 0.03162 µM) it was 0.881; with Elesclomol + Vorinostat (first compound 0.1 µM), 0.111; with Elesclomol + Trametinib (first compound 0.003162 µM), 0.23; in the assay with Elesclomol + Trametinib (first compound 0.01 µM), 0.21. For the same cell line, the values for the relative viability with Elesclomol + Trametinib (first compound 0.03162 µM) and in the assay with Elesclomol + Trametinib (first compound 0.1 µM) were 0.216 and 0.0967, respectively.
SK-MES-1: the relative viability came to 1.05 with Elesclomol (0.003162 µM); 0.76 with Elesclomol (0.01 µM); 0.794 in the assay with Elesclomol (0.03162 µM); 0.489 with Elesclomol (0.1 µM); 0.563 with Elesclomol + Lapatinib (first compound 0.003162 µM); 0.446 with Elesclomol + Lapatinib (first compound 0.01 µM). Further, the relative viability with Elesclomol + Lapatinib (first compound 0.03162 µM) was 0.429; with Elesclomol + Lapatinib (first compound 0.1 µM), 0.325; with Elesclomol + Vorinostat (first compound 0.003162 µM) it was 1.13; in the assay with Elesclomol + Vorinostat (first compound 0.01 µM) it was 0.481; with Elesclomol + Vorinostat (first compound 0.03162 µM), 0.425; in the assay with Elesclomol + Vorinostat (first compound 0.1 µM) it was 0.284. Besides, the relative viability with Elesclomol + Trametinib (first compound 0.003162 µM) stood at 0.584; with Elesclomol + Trametinib (first compound 0.01 µM), 0.635; with Elesclomol + Trametinib (first compound 0.03162 µM) it was 0.501; with Elesclomol + Trametinib (first compound 0.1 µM), 0.415.
In the case of NCI-H1944, the relative viability in the assay with Elesclomol (0.003162 µM) was determined as 1.05; with Elesclomol (0.01 µM), 0.948; with Elesclomol (0.03162 µM) it was 0.959; with Elesclomol (0.1 µM), 0.578; with Elesclomol + Lapatinib (first compound 0.003162 µM) it was 0.829; with Elesclomol + Lapatinib (first compound 0.01 µM) it was 0.714. Moreover, the relative viability with Elesclomol + Lapatinib (first compound 0.03162 µM) stood at 0.846; with Elesclomol + Lapatinib (first compound 0.1 µM), 0.688; with Elesclomol + AZD7762 (first compound 0.003162 µM) it was 0.469; with Elesclomol + AZD7762 (first compound 0.01 µM), 0.567; with Elesclomol + AZD7762 (first compound 0.03162 µM) it was 0.408; with Elesclomol + AZD7762 (first compound 0.1 µM), 0.206. The relative viability with Elesclomol + Vorinostat (first compound 0.003162 µM) amounted to 0.652; with Elesclomol + Vorinostat (first compound 0.01 µM) it was 0.578; with Elesclomol + Vorinostat (first compound 0.03162 µM), 0.459; in the assay with Elesclomol + Vorinostat (first compound 0.1 µM), 0.166; with Elesclomol + Trametinib (first compound 0.003162 µM), 0.48; with Elesclomol + Trametinib (first compound 0.01 µM), 0.456. For the same cell line, the relative viability amounted to 0.352 with Elesclomol + Trametinib (first compound 0.03162 µM) and 0.266 with Elesclomol + Trametinib (first compound 0.1 µM).
For the cell line LK-2, the relative viability in the assay with Elesclomol (0.003162 µM) amounted to 0.796; with Elesclomol (0.01 µM) it was 0.715; in the assay with Elesclomol (0.03162 µM), 0.507; with Elesclomol (0.1 µM), 0.157; with Elesclomol + Lapatinib (first compound 0.003162 µM), 0.698; in the assay with Elesclomol + Lapatinib (first compound 0.01 µM), 0.22. Moreover, the relative viability with Elesclomol + Lapatinib (first compound 0.03162 µM) came out at 0.17; with Elesclomol + Lapatinib (first compound 0.1 µM) it was 0.0799; with Elesclomol + AZD7762 (first compound 0.01 µM) it was 0.37; in the assay with Elesclomol + AZD7762 (first compound 0.03162 µM), 0.279; in the assay with Elesclomol + AZD7762 (first compound 0.1 µM), 0.0458; with Elesclomol + Vorinostat (first compound 0.003162 µM) it was 0.395. Also, the relative viability amounted to 0.232 with Elesclomol + Vorinostat (first compound 0.01 µM); 0.167 with Elesclomol + Vorinostat (first compound 0.03162 µM); 0.121 with Elesclomol + Vorinostat (first compound 0.1 µM); 0.468 with Elesclomol + Trametinib (first compound 0.003162 µM); 0.454 with Elesclomol + Trametinib (first compound 0.01 µM); 0.428 with Elesclomol + Trametinib (first compound 0.03162 µM). Besides, the relative viability with Elesclomol + Trametinib (first compound 0.1 µM) was 0.115.
For the cell line PC-3 [JPC-3], the relative viability with Elesclomol (0.003162 µM) turned out to be 1.06; in the assay with Elesclomol (0.01 µM), 0.892; with Elesclomol (0.03162 µM), 1.04; with Elesclomol (0.1 µM) it was 0.665; with Elesclomol + Lapatinib (first compound 0.003162 µM), 0.43; with Elesclomol + Lapatinib (first compound 0.01 µM), 0.386. The relative viability in the assay with Elesclomol + Lapatinib (first compound 0.03162 µM) was found to be 0.519; with Elesclomol + Lapatinib (first compound 0.1 µM) it was 0.405; in the assay with Elesclomol + AZD7762 (first compound 0.003162 µM), 0.741; with Elesclomol + AZD7762 (first compound 0.01 µM), 0.539; in the assay with Elesclomol + AZD7762 (first compound 0.03162 µM), 0.438; in the assay with Elesclomol + AZD7762 (first compound 0.1 µM), 0.401. Besides, the relative viability with Elesclomol + Vorinostat (first compound 0.003162 µM) is 0.779; in the assay with Elesclomol + Vorinostat (first compound 0.01 µM), 0.489; with Elesclomol + Vorinostat (first compound 0.03162 µM) it was 0.466; with Elesclomol + Vorinostat (first compound 0.1 µM) it was 0.372; with Elesclomol + Trametinib (first compound 0.003162 µM), 0.714; in the assay with Elesclomol + Trametinib (first compound 0.01 µM), 0.473. The relative viability with Elesclomol + Trametinib (first compound 0.03162 µM) is 0.435; with Elesclomol + Trametinib (first compound 0.1 µM) it was 0.5.
As for COR-L23, the relative viability in the assay with Elesclomol (0.003162 µM) amounted to 0.969; with Elesclomol (0.01 µM), 0.629; with Elesclomol (0.03162 µM), 0.461; with Elesclomol (0.1 µM) it was 0.256; with Elesclomol + Lapatinib (first compound 0.003162 µM), 0.885; in the assay with Elesclomol + Lapatinib (first compound 0.01 µM), 0.484. Further, the relative viability worked out at 0.434 with Elesclomol + Lapatinib (first compound 0.03162 µM); 0.178 with Elesclomol + Lapatinib (first compound 0.1 µM); 0.378 with Elesclomol + Vorinostat (first compound 0.003162 µM); 0.156 with Elesclomol + Vorinostat (first compound 0.01 µM); 0.144 in the assay with Elesclomol + Vorinostat (first compound 0.03162 µM); 0.0678 in the assay with Elesclomol + Vorinostat (first compound 0.1 µM). For the same cell line, the relative viability stood at 0.55 with Elesclomol + Trametinib (first compound 0.003162 µM), 0.22 in the assay with Elesclomol + Trametinib (first compound 0.01 µM), 0.239 in the assay with Elesclomol + Trametinib (first compound 0.03162 µM) and 0.101 with Elesclomol + Trametinib (first compound 0.1 µM).
